For experiment [1], the system named is DPP-IV. The following applies: DPP-IV enzyme assay of coumarin; cited from earlier work.
Experiment [2] deals with DPP-IV enzyme (Homo sapiens, UniProt P27487). As to the kind of experiment: In vitro DPP-IV enzyme inhibition assay (Cayman Chemical kit, item 700210). The following applies: for inhibition at 250 µM: read-out: % Inhibition (at Conc.).
Sequence of DPP-IV enzyme (P27487 whole entry): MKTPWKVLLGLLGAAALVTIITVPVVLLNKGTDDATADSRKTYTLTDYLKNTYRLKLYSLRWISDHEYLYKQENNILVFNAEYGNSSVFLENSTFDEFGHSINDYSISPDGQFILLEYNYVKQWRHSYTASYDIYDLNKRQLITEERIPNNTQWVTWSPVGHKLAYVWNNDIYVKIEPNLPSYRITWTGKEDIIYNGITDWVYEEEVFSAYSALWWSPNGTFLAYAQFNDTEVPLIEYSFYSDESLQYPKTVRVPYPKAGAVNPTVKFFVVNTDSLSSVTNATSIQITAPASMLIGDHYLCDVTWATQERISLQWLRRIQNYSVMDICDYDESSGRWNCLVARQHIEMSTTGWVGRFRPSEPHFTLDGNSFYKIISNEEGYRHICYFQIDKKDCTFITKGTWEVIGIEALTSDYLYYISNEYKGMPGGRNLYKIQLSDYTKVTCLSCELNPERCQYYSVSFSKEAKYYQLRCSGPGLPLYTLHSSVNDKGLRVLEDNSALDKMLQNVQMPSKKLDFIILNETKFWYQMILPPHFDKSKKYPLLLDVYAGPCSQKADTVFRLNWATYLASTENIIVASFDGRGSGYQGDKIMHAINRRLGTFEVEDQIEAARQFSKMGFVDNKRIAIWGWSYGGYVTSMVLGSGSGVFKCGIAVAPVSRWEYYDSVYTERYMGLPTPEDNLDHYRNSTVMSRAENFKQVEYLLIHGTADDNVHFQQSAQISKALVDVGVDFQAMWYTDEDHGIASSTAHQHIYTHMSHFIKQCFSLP

In general, IC50 refers to the point on the concentration scale where inhibition reaches its midpoint. `O=c1ccc2ccccc2o1` [coumarin]: in experiment [1], the half-inhibitory concentration (IC50) was 54.8 µM.

One may read the inhibition as the drop in the measured response relative to a control, in per cent. For `O=c1oc2ccc(S(=O)(=O)NCc3ccccc3)cc2cc1Cl` [6t, N-benzyl-3-chloro-2-oxo-2H-chromene-6-sulfonamide], in experiment [2], the IC50 came to 17.73 ± 0.02 µM and the inhibition at 250 µM worked out at 88.3 ± 2.06%. The matching figures for `O=c1oc2ccc(S(=O)(=O)Nc3ccccc3)cc2cc1Cl` [6a, 3-Chloro-2-oxo-2H-1-benzopyran-6-(N-phenyl)sulfonamide]: 14.5 ± 1.2 µM and 93.5 ± 2.02%. In the case of `Cc1ccccc1NS(=O)(=O)c1ccc2oc(=O)c(Cl)cc2c1` [6s, 3-Chloro-2-oxo-N-(o-tolyl)-2H-chromene-6-sulfonamide], in experiment [2], 18.29 ± 0.1 µM corresponded to half-maximal inhibition (IC50) and the inhibition at 250 µM was determined as 89.3 ± 0.9%.

On to `O=c1oc2ccc(S(=O)(=O)Nc3ccccn3)cc2cc1Cl` [6b, 3-Chloro-2-oxo-N-(pyridin-2-yl)-2H-chromene-6-sulfonamide], for which, in experiment [2], the IC50 came to 15.7 ± 0.98 µM and the inhibition at 250 µM amounted to 91.15 ± 0.9%.

On to `O=c1oc2ccc(S(=O)(=O)Nc3ccncc3)cc2cc1Cl` [6d, 3-Chloro-2-oxo-N-(pyridin-4-yl)-2H-chromene-6-sulfonamide], for which, in experiment [2], the half-maximal inhibitory concentration (IC50) stood at 15.2 ± 1.02 µM and the inhibition at 250 µM came out at 92.4 ± 1.11%. Regarding `Cc1ccc(NS(=O)(=O)c2ccc3oc(=O)c(Cl)cc3c2)cc1` [6r, 3-Chloro-2-oxo-N-(p-tolyl)-2H-chromene-6-sulfonamide], in experiment [2], the concentration for half-maximal inhibition (IC50) is 12.92 ± 0.11 µM and the inhibition at 250 µM came out at 95.4 ± 1.1%. As for `O=c1oc2ccc(S(=O)(=O)Nc3cccnc3)cc2cc1Cl` [6c, 3-Chloro-2-oxo-N-(pyridin-3-yl)-2H-chromene-6-sulfonamide], in experiment [2], the midpoint of inhibition, the IC50, lay at 16.3 ± 2.04 µM and the inhibition at 250 µM worked out at 90.3 ± 2.04%. The matching figures for `O=c1oc2ccc(S(=O)(=O)Nc3nc4ccccc4[nH]3)cc2cc1Cl` [6i, 3-Chloro-2-oxo-2H-1-benzopyran-6-(N-benzimidazole)sulfonamide]: 11 ± 1 µM and 95.8 ± 1.08%.

The values are drawn from paper PMC9921777, “Coumarin-Based Sulfonamide Derivatives as Potential DPP-IV Inhibitors: Pre-ADME Analysis, Toxicity Profile, Computational Analysis, and In Vitro Enzyme Assay” (Molecules, 2023).
